Values of other authors in patent US7612202B2, “Process for preparing temozolomide” (Chemagis, Ltd., priority 2005, dated 2009).
“Also recorded” adds a separate entry of the source.

Columns and labels:
[1] = administered Temozolomide dose

Cn1nnc2c(C(N)=O)ncn2c1=O [Temozolomide, 8-carbamoyl-3-methyl-imidazo[5,1-d]-1,2,3,5-tetrazin-4(3H)-one]
stability at acidic pH (aqueous buffers, pH<5): stable | stability at pH>7 (aqueous buffers, pH>7): labile; also recorded: rapidly decomposes to MTIC | in vitro half-life (phosphate buffer at 37° C. and pH 7.4): 1.9 h | percentage of administered dose metabolized to TMA [1]: about 2%
